Data reported in PubChem BioAssay AID208 (DTP/NCI, 2004).
Values joined by “and” are separate entries in the source; they are usually repeats but may differ in a detail not shown here. Identical values can stand only once. Records with an inconclusive call do not appear.

System: HT29 intrarenal xenograft, nude mice, tumor weight change
Assay: NCI In Vivo Anticancer Drug Screen. Data for tumor model HT29;CX-1 Human Adenocarcinoma (MER+) (intrarenal inoculation) in NU/NU BALB/C (nude) mice
Details: endpoint: mean tumor weight change, higher = larger tumour
Procedure: The antitumor activity of compounds was measured in mice bearing transplantable tumors. Survival or tumor size were measured and the results are expressed as the measurement made in the treated group (T) divided by the measurement made in the vehicle treated control group (C). The tumor model used in this assay is HT29;CX-1 Human Adenocarcinoma (MER+) (intrarenal inoculation) in NU/NU BALB/C (nude) mice

[1] = dose: 100.0 mg/kg/injection, schedule: Q04DX004 (sc), vehicle: saline
[2] = dose: 150.0 mg/kg/injection, schedule: Q04DX004 (sc), vehicle: saline with Tween-80
[3] = dose: 300.0 mg/kg/injection, schedule: Q04DX004 (sc), vehicle: saline with Tween-80
[4] = dose: 600.0 mg/kg/injection, schedule: Q04DX004 (sc), vehicle: saline with Tween-80
[5] = dose: 1200.0 mg/kg/injection, schedule: Q04DX004 (sc), vehicle: saline with Tween-80
[6] = dose: 100.0 mg/kg/injection, schedule: Q01DX010 (sc), vehicle: Klucel (hydroxypropylcellulose) (HPC)
[7] = dose: 600.0 mg/kg/injection, schedule: Q04DX004 (sc), vehicle: Klucel (hydroxypropylcellulose) (HPC)
[8] = dose: 200.0 mg/kg/injection, schedule: Q01DX010 (sc), vehicle: Klucel (hydroxypropylcellulose) (HPC)

## COc1cc(C)c2c(c1C=O)Oc1c(c(C)c(O)c3c1C(O)OC3=O)OC2=O (stereo not given)
dose: 50.0 mg/kg/injection, schedule: Q01DX010 (sc), vehicle: saline
  T/C: 42 % of control
dose: 100.0 mg/kg/injection, schedule: Q01DX010 (sc), vehicle: saline
  T/C: 81 % of control
dose: 400.0 mg/kg/injection, schedule: Q01DX010 (sc), vehicle: saline
  T/C: 38 % of control

## N=C1CCCS1
dose: 12.5 mg/kg/injection, schedule: Q04DX004 (sc), vehicle: saline
  T/C: 117 % of control
dose: 25.0 mg/kg/injection, schedule: Q04DX004 (sc), vehicle: saline
  T/C: 151 % of control
dose: 50.0 mg/kg/injection, schedule: Q04DX004 (sc), vehicle: saline
  T/C: 96 % of control
[1]
  T/C: 62 % of control

## N=c1c(C(=O)OCc2ccccc2)ncc(CCl)n1O
[2]
  T/C: 67 % of control
[3]
  T/C: 58 % of control
[4]
  T/C: 49 % of control
[5]
  T/C: 75 % of control

## O=C(O)CC(=O)O.[NH-]C1CCCCC1[NH-].[Pt+2] (stereo not given)
dose: 10.0 mg/kg/injection, schedule: Q01DX010 (sc), vehicle: dextrose
  T/C: 64 % of control
dose: 20.0 mg/kg/injection, schedule: Q01DX010 (sc), vehicle: dextrose
  T/C: 40 % of control
dose: 40.0 mg/kg/injection, schedule: Q01DX010 (sc), vehicle: dextrose
  T/C: 7 % of control

## CNC=O
dose: 100.0 mg/kg/injection, schedule: Q01DX010 (ip), vehicle: saline
  T/C: 81 % of control
dose: 200.0 mg/kg/injection, schedule: Q01DX010 (ip), vehicle: saline
  T/C: 64 % of control
dose: 400.0 mg/kg/injection, schedule: Q01DX010 (ip), vehicle: saline
  T/C: -33 % of control

## Cn1c(=O)[nH]c2nncnc2c1=O
dose: 60.0 mg/kg/injection, schedule: Q04DX004 (sc), vehicle: water
  T/C: 124 % of control

## Cn1cnc([N+](=O)[O-])c1S(=O)(=O)NCN1CCOCC1
[6]
  T/C: 80 % of control

## COc1cc(Cc2nccc3cc(OC)c(OC)cc23)c(C(C)=O)c(OC)c1
dose: 20.0 mg/kg/injection, schedule: Q01DX010 (sc), vehicle: saline
  T/C: 109 % of control
dose: 80.0 mg/kg/injection, schedule: Q01DX010 (sc), vehicle: saline
  T/C: 64 % of control

## CC(O)CCC(=O)c1ccoc1 (stereo not given)
dose: 3.75 mg/kg/injection, schedule: Q01DX010 (ip), vehicle: saline
  T/C: 97 % of control
dose: 7.5 mg/kg/injection, schedule: Q01DX010 (ip), vehicle: saline
  T/C: 88 % of control
dose: 15.0 mg/kg/injection, schedule: Q01DX010 (ip), vehicle: saline
  T/C: 108 % of control
dose: 30.0 mg/kg/injection, schedule: Q01DX010 (ip), vehicle: saline
  T/C: 89 % of control

## COc1ccc2c(ccc3oc([N+](=O)[O-])cc32)c1
dose: 150.0 mg/kg/injection, schedule: Q04DX004 (sc), vehicle: Klucel (hydroxypropylcellulose) (HPC)
  T/C: 113 % of control
[7]
  T/C: 76 % of control

## CN(C)P(=O)(Oc1ccccc1)N(C)C
[5]
  T/C: 78 % of control

## N#CC(C#N)=C/C=C/c1cccc([N+](=O)[O-])c1
dose: 25.0 mg/kg/injection, schedule: Q01DX010 (sc), vehicle: Klucel (hydroxypropylcellulose) (HPC)
  T/C: 81 % of control
dose: 50.0 mg/kg/injection, schedule: Q01DX010 (sc), vehicle: Klucel (hydroxypropylcellulose) (HPC)
  T/C: 90 % of control
[6]
  T/C: 76 % of control
[8]
  T/C: 63 % of control

## O=[N+]([O-])c1nccn1CC(O)CO (stereo not given)
dose: 300.0 mg/kg/injection, schedule: Q04DX004 (sc), vehicle: saline
  T/C: 86 % of control
dose: 1200.0 mg/kg/injection, schedule: Q04DX004 (sc), vehicle: saline
  T/C: 81 % of control
dose: 2400.0 mg/kg/injection, schedule: Q04DX004 (sc), vehicle: saline
  T/C: 112 % of control

## CCOC(=O)C1(c2ccccc2)C(=O)Oc2ccccc21 (stereo not given)
[2]
  T/C: 83 % of control
[3]
  T/C: 98 % of control
[4]
  T/C: 117 % of control
[5]
  T/C: 80 % of control

## CCCCCCCCCCCCCCCCCCOCC(COP(=O)([O-])OCC[N+](C)(C)C)OC (stereo not given)
dose: 150.0 mg/kg/injection, schedule: Q04DX004 (sc), vehicle: saline
  T/C: 121 % of control

## CC(/C=C/c1ccccc1)=Nc1ccccc1
[5]
  T/C: 46 % of control
dose: 1800.0 mg/kg/injection, schedule: Q04DX004 (sc), vehicle: saline with Tween-80
  T/C: 54 % of control

## CCCCNCCCNCCCNC(=O)c1csc(-c2csc(CCNC(=O)C(NC(=O)C(C)C(O)C(C)NC(=O)C(NC(=O)c3nc(C(CC(N)=O)NCC(N)C(N)=O)nc(N)c3C)C(OC3OC(CO)C(O)C(O)C3OC3OC(CO)C(O)C(OC(N)=O)C3O)c3cnc[nH]3)C(C)O)n2)n1 (stereo not given)
dose: 8.0 mg/kg/injection, schedule: Q01DX010 (sc), vehicle: saline
  T/C: 30 % of control
dose: 32.0 mg/kg/injection, schedule: Q01DX010 (sc), vehicle: saline
  T/C: -32 % of control

## O=P1(N(CCCl)CCCl)NCCCO1 (stereo not given)
dose: 60.0 mg/kg/injection, schedule: Q04DX004 (ip), vehicle: saline
  T/C: 62 % of control and 77 % of control and 83 % of control
[1]
  T/C: 19 % of control and 21 % of control

## COC(=O)Nc1nc2ccc(SC)cc2c(=O)[nH]1
dose: 300.0 mg/kg/injection, schedule: Q04DX004 (sc), vehicle: Klucel (hydroxypropylcellulose) (HPC)
  T/C: 122 % of control
[7]
  T/C: 95 % of control
dose: 1200.0 mg/kg/injection, schedule: Q04DX004 (sc), vehicle: Klucel (hydroxypropylcellulose) (HPC)
  T/C: 48 % of control
dose: 2400.0 mg/kg/injection, schedule: Q04DX004 (sc), vehicle: Klucel (hydroxypropylcellulose) (HPC)
  T/C: 37 % of control

## CCCC(=O)OCc1cc(=O)n(C)c2c3c4c(cc12)c(C)cc(=O)n4CO3
[6]
  T/C: 40 % of control
[8]
  T/C: 43 % of control
dose: 400.0 mg/kg/injection, schedule: Q01DX010 (sc), vehicle: Klucel (hydroxypropylcellulose) (HPC)
  T/C: 56 % of control
dose: 800.0 mg/kg/injection, schedule: Q01DX010 (sc), vehicle: Klucel (hydroxypropylcellulose) (HPC)
  T/C: 27 % of control

## Nc1ccc(Cn2ccc3c4c(N)nc(N)nc4ccc32)cc1
dose: 18.75 mg/kg/injection, schedule: Q04DX004 (sc), vehicle: saline with Tween-80
  T/C: 60 % of control
dose: 37.5 mg/kg/injection, schedule: Q04DX004 (sc), vehicle: saline with Tween-80
  T/C: 58 % of control

## CCOC(=O)C(CC(C)C)NC(=O)C(Cc1ccc(N(CCCl)CCCl)cc1)NC(C)=O (stereo not given)
dose: 100.0 mg/kg/injection, schedule: Q01DX010 (sc), vehicle: saline with Tween-80
  T/C: 46 % of control
dose: 200.0 mg/kg/injection, schedule: Q01DX010 (sc), vehicle: saline with Tween-80
  T/C: 2 % of control

## OCC(O)C(O)C(O)C(O)CO (stereo not given)
dose: 75.0 mg/kg/injection, schedule: Q04DX004 (ip), vehicle: saline
  T/C: 104 % of control
dose: 150.0 mg/kg/injection, schedule: Q04DX004 (ip), vehicle: saline
  T/C: 115 % of control
dose: 300.0 mg/kg/injection, schedule: Q04DX004 (ip), vehicle: saline
  T/C: 82 % of control
dose: 600.0 mg/kg/injection, schedule: Q04DX004 (ip), vehicle: saline
  T/C: 90 % of control

## CCC1=C[C@H]2CN(CCc3c([nH]c4ccccc34)[C@@](C(=O)OC)(c3cc4c(cc3OC)N(C)[C@H]3[C@@](O)(C(=O)NC)[C@H](OC(C)=O)[C@]5(CC)C=CCN6CC[C@]43[C@@H]65)C2)C1
dose: 2.0 mg/kg/injection, schedule: Q04DX004 (sc), vehicle: water
  T/C: -17 % of control and 8 % of control
dose: 4.0 mg/kg/injection, schedule: Q04DX004 (sc), vehicle: water
  T/C: -99 % of control

## CC(=O)Oc1ccc[nH]c1=O
dose: 200.0 mg/kg/injection, schedule: Q04DX004 (sc), vehicle: saline with Tween-80
  T/C: 88 % of control
dose: 400.0 mg/kg/injection, schedule: Q04DX004 (sc), vehicle: saline with Tween-80
  T/C: 104 % of control
dose: 800.0 mg/kg/injection, schedule: Q04DX004 (sc), vehicle: saline with Tween-80
  T/C: 122 % of control

## CCC1=C[C@H]2CN(CCc3c([nH]c4ccccc34)[C@@](C(=O)OC)(c3cc4c(cc3OC)N(C)[C@H]3[C@@](O)(C(=O)OC)[C@H](OC(C)=O)[C@]5(CC)C=CCN6CC[C@]43[C@@H]65)C2)C1
dose: 0.38 mg/kg/injection, schedule: Q04DX004 (sc), vehicle: water
  T/C: 116 % of control
dose: 0.75 mg/kg/injection, schedule: Q04DX004 (sc), vehicle: water
  T/C: 159 % of control
dose: 1.5 mg/kg/injection, schedule: Q04DX004 (sc), vehicle: water
  T/C: 118 % of control
dose: 3.0 mg/kg/injection, schedule: Q04DX004 (sc), vehicle: water
  T/C: 40 % of control
dose: 6.0 mg/kg/injection, schedule: Q04DX004 (sc), vehicle: water
  T/C: 100 % of control
dose: 12.0 mg/kg/injection, schedule: Q04DX004 (sc), vehicle: water
  T/C: 66 % of control

## OC1(CSc2ccccc2)CCCCC1
[5]
  T/C: 65 % of control
dose: 2400.0 mg/kg/injection, schedule: Q04DX004 (sc), vehicle: saline with Tween-80
  T/C: 68 % of control
